Laboratory results: patent US9399631B2, “Polyphenol proteasome inhibitors, synthesis, and methods of use” (UNIVERSITY OF SOUTH FLORIDA, priority 2003, dated 2016)
Where a SMILES comes first, the peptide text is derived from it. [ ]: non-standard residue; d: D form. Nle = CCCC[C@H](N)C(=O)O

Legend:
purified 20S proteasome [1] = molecular target: T1, purified 20S proteasome (UniProt G1T4Q9); assay: Inhibition of chymotrypsin-like activity of purified 20S proteasome (source not stated); type: biochemical; conditions: chymotrypsin-like activity of purified 20S proteasome
T1 construct: IC50; other: chymotrypsin-like activity of purified 20S proteasome
Method: (§1) Inhibition of purified 20S proteasome activity by natural or synthetic GTPs. Purified prokaryotic (0.5 μg) or eukaryotic (0.02 μg) 20S proteasome was incubated with 20 μM fluorogenic peptide substrate, Suc-Leu-Leu-Val-Tyr-AMC for 30 min at 37° C. in […] of assay buffer (50 mM Tris-HCl, pH 7.5), with or without a natural or synthetic tea polyphenol. After incubation, production of hydrolyzed 7-amido-4-methyl-coumarin (AMC) groups was measured using a multi-well plate VERSAFLUOR Fluorometer with an excitation filter of 380 nm and an emission filter of 460 nm (BIO-RAD), and a multi-well plate reader Wallac 1420 VICTORTM^2 with an excitation filter of 355 nm and an emission filter of 460 nm (EG&G WALLAC).

LNCaP cells [2] = assay: Soft agar colony formation assay; type: cell-based, human; conditions: 50 μM, 14 day-incubation
Method: Soft Agar Assay. The soft agar assay was performed according to Smith et al. (Smith, D. M. et al. Mol Med, 2002, 8:382-392) with a few modifications. In brief, in a six-well plate, a bottom feeder layer (0.6% agar) was prepared with DMEM media containing 10% fetal bovine serum, 100 units/ml penicillin, and 100 μg/ml streptomycin. A top layer (0.3% agar) was prepared with DMEM and the same media as described above but containing 2×10^4 prostate cancer LNCaP cells and indicated analogs or DMSO as a control. Plates were incubated at 37° C. in 5% CO2 in a humidified incubator for two weeks. MTT (1 mg/ml) was added to each well and incubated overnight to allow complete formation of purple formazan crystals. The plates were then scanned and photographed, and the number of colonies was quantified by QUANTITY ONE v.4.0.3 software (Bio-Rad, Hercules, Calif.).
The […] effects of several GTP analogs were investigated with a soft agar assay that measures the transforming activity of human tumor cells. LNCaP cells were plated in soft agar (see Materials and Methods) along with 50 μM of GTP-1, -2, -3, (−)-EGCG (as a positive control; Smith, D. M. et al. Mol Med, 2002, 8:382-392, 2002), or the solvent (as a negative control), followed by a 14 day-incubation to allow for colony formation (FIGS. 12A and 12B).
In a second experiment, LNCaP cells were plated in soft agar along with 10 μM of each indicated GTP or solvent (H2O), followed by a 14 day-incubation to allow for colony formation (FIG. 21A). […] Colonies were quantified with an automated counter and presented as mean values from triplicate independent experiments. Error bars denote standard deviations.

[3] = molecular target: T2, 20S eukaryotic proteasome (Oryctolagus cuniculus, UniProt G1T4Q9); assay: Inhibition of chymotrypsin-like activity of purified eukaryotic 20S proteasome (Suc-Leu-Leu-Val-Tyr-AMC); type: biochemical, rabbit
T2 construct: purchased BOSTON BIOCHEM (Cambridge, Mass.)
T2 sequence (G1T4Q9 1-263): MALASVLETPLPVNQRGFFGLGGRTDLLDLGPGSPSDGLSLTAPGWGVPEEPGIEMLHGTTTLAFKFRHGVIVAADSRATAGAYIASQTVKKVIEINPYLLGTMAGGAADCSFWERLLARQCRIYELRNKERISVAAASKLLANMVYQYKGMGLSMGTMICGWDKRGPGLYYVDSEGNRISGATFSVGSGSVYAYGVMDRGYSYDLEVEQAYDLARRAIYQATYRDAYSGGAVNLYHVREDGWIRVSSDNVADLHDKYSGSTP
Method: Materials. Highly purified tea polyphenols (−)-EGCG (>95%), (−)-GCG (>98%), (−)-ECG (>98%), (−)-CG (>98%), fetal calf serum, propidium iodide, 3-[4,5-dimethylthiazol-2-yl]-2,5-diphenyltetrazolium bromide (MTT), RNase A, and DMSO were purchased from Sigma (St. Louis, Mo.). (+)-EGCG, benzyl-protected-(+)-EGCG, (+)-GCG, (−)-EGCG-amide, and (+)-EGCG-amide were prepared by enantioselective synthesis (see below). Purified 20S eukaryotic proteasome from rabbit was purchased from BOSTON BIOCHEM (Cambridge, Mass.). Purified 20S prokaryotic proteasome (Methanosarcina thermophile, Recombinant, E. coli) was purchased from CALBIOCHEM (La Jolla, Calif.). Fluorogenic peptide substrates Suc-Leu-Leu-Val-Tyr-AMC (for the proteasomal chymotrypsin-like activity) was obtained from Calbiochem (La Jolla, Calif.). RPMI 1640 medium, Dulbecco's modified Eagle's medium, MEM non-essential amino acids solution, MEM-sodium pyruvate solution, penicillin, and streptomycin were from INVITROGEN (Carlsbad, Calif.). Monoclonal antibody to p27^Kip was purchased from PHARMINGEN (San Diego, Calif.); polyclonal antibodies to IκB-α, Bax and actin, and monoclonal antibody to ubiquitin were from SANTA CRUZ Biotechnology Inc. (Santa Cruz, Calif.).
as §1
Purified prokaryotic (0.5 μg) or eukaryotic (0.02 μg) 20S proteasome was incubated with 20 μM fluorogenic peptide substrate, Suc-Leu-Leu-Val-Tyr-AMC for 30 minutes at 37° C. in 100 μl of assay buffer ([…] Tris-HCl, pH 7.5), with or without a natural or synthetic tea polyphenol. After incubation, production of hydrolyzed AMC groups was measured using a multi-well plate VERSAFLUOR Fluorometer with an excitation filter of 380 nm and an emission filter of 460 nm.
(−)-EGCG at 1 μM was incubated with eukaryotic 20S proteasome (0.02 μg) and suc-LLVY-AMC (20 μM) for the times indicated in FIG. 7. The chymotrypsin activity was measured and graphed in FIG. 7. Values are means from 4 independent experiments, and error bars represent standard deviations.
In the second experiment (−)-EGCG at 1 μM was pre-incubated with (SDS-pre) or without 0.01% SDS (no SDS) for 1 hour, followed by addition of eukaryotic 20S proteasome (0.02 μg) and suc-LLVY-AMC (20 μM). “SDS-post” represents the same treatment as “no SDS” except 0.01% SDS was added 1 hour after addition of the proteasome, (−)-EGCG and the substrate. AMC liberation was measured by fluorescence at each indicated time point and the percentage of chymotrypsin activity was determined. Values are means from 4 independent experiments, and error bars represent standard deviations.

LNCaP cells [4] = assay: Western blot of proteasome target proteins in LNCaP cells; type: cell-based, human; conditions: 50 μM, 3 to 12 hours
Method: (§2) Cell Culture, Cell Extract Preparation, and Western Blot Assay. Human leukemia Jurkat T and prostate cancer LNCaP cells were cultured in RPMI 1640 medium supplemented with 10% fetal calf serum, 100 units/ml of penicillin, and 100 μg/ml streptomycin. Human immortalized, non-transformed NK cells (YT cell line) (38) were cultured in RPMI 1640 supplemented with 1 mM MEM sodium pyruvate solution, 0.1 mM MEM non-essential amino acids solution, 10% fetal calf serum. 100 units/ml penicillin, and 100 μg/ml streptomycin. Normal (WI-38) and simian virus 40 (SV40)-transformed (VA-13) human fibroblasts were grown in Dulbecco's modified Eagle's medium supplemented with 10% fetal calf serum, 100 units/ml of penicillin and 100 μg/ml of streptomycin. All cells were maintained at 37° C. in a humidified incubator with an atmosphere of 5% CO2. A whole cell extract was prepared in accordance with An et al. (An, B. et al. Cell Death Differ, 1998, 5:1062-75). Briefly, cells were harvested, washed with PBS twice, and homogenized in a lysis buffer [50 mM Tris-HCl (pH 8.0), 5 mM EDTA, 150 mM NaCl, 0.5% NP-40, 0.5 mM phenylmethylsulfonyl fluoride, and 0.5 mM dithiothreitol] for 30 min at 4° C. Afterwards, lysates were centrifuged at 12,000×g for 15 min at 4° C., and the supernatants were collected as whole cell extracts. Equal amounts of protein extract (60 μg) were resolved by SDS-polyacrylamide gel electrophoresis and transferred to a nitrocellulose membrane using a Semi-Dry Transfer system (BIO-RAD, Hercules, Calif.). Jurkat T, LNCaP, or DU-145 cells were treated with various concentrations of synthetic or natural tea polyphenols for indicted hours. The enhanced chemiluminescence (ECL) Western blot analysis was then performed using specific antibodies to the proteins of interest (p^27kip, IκB-α, PARP, Bax or actin). The ratio of p27 or IκB-α to the corresponding actin was determined by scanning intensities of the protein bands.
To investigate whether (−)-EGCG-amide and (+)-EGCG-amide inhibit intact tumor cell proteasome activity, human prostate cancer LNCaP cells were treated with 25 μM of (−)- or (+)-EGCG-amide for up to 9 hours, followed by measurement of p27, IκB-α and Bax, three well-known proteasome target proteins (Pagano, M. et al. Science, 1995, 269:682-685; An, B. et al. Cell Death Differ, 1998, 5:1062-75; Sun, J. et al. Cancer Res, 2001, 61:1280-1284; Palombella, V. J. et al. Cell, 1994, 78:773-785; Thompson, J. E. et al. Cell, 1995, 80:573-582; Perkins, N. D. Trends Biochem Sci, 2000, 25:434-440; Chang, Y. C. et al. Cell Growth Differ, 1998, 9:79-84; Li, B. and Dou, Q. P. Proc Natl Acad Sci USA, 2000, 97:3850-3855; Nam, S. et al. Cancer Epidemiol Biomarkers Prey, 2001, 10:1083-1088). In this experiment (−)-EGCG and (+)-EGCG were used as positive controls.
Having determined that the synthetic GTP-1 to −5 analogs are able to inhibit the proteasomal chymotrypsin-like activity in vitro (FIG. 8), these compounds were investigated for their potency in inhibiting intact tumor cellular proteasome activity. To do so, human prostate cancer LNCaP cells were treated with one of these compounds for the indicated hours, followed by measuring levels of proteasome target proteins, p27, IκB-α, and Bax, and polyubiquitinated proteins.

VA-13 cells = assay: Western blot of p27 in SV40-transformed VA-13 fibroblasts; type: cell-based, human; conditions: 25 μM, 12 hours
Method: as §2
Normal WI-38 and SV40-transformed VA-13 cell lines were treated with 25 μM of (−)-EGCG, (−)-EGCG-amide, (+)-EGCG, (+)-EGCG-amide, or GTP-1 for either 12 hours or 36 hours.

purified 20S proteasome [5] = molecular target: purified 20S proteasome (UniProt Q9P992); assay: Inhibition of chymotrypsin-like activity of purified 20S proteasome (source not stated); type: biochemical; parameters: other: 1 μM; other: 10 μM
Sequence of purified 20S proteasome (UniProt Q9P992) (Q9P992 whole entry): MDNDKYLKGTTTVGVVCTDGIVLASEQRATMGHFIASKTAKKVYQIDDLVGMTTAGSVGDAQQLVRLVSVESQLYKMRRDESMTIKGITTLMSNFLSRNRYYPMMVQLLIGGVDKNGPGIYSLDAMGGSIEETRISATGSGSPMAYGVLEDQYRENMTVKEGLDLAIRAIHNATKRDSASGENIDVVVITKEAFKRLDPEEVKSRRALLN
Method: as §1

Structure (SMILES) | IC50 (purified 20S proteasome [1]) | colony formation (LNCaP transformation capability) (LNCaP cells [2]) | levels of polyubiquitinated proteins (LNCaP cells [4]) | levels of proteasome target proteins (p27, IκB-α) (LNCaP cells [4]) | also measured
O=C(N[C@H]1CCCC[C@H]1NC(=O)c1cc(O)c(O)c(O)c1)c1cc(O)c(O)c(O)c1 [GTP-2] | 2500 nM | completely blocked LNCaP transformation capability |  |  | 
O=c1c(-c2ccc(O)cc2)coc2cc(O)cc(O)c12 [genistein] |  |  |  |  | IC50 ([3]; chymotrypsin-like activity of purified 20S proteasome): 26000 nM
O=C(O[C@H]1CCCC[C@H]1OC(=O)c1cc(O)c(O)c(O)c1)c1cc(O)c(O)c(O)c1 [GTP-1] | 1900 nM | completely blocked LNCaP transformation capability | caused accumulation of polyubiquitinated proteins | increased levels of p27, IκB-α, and Bax proteins at as early as 3 hours | levels of p27 protein (VA-13 cells): significantly increased levels of p27 protein
CCCC[C@@H](C=O)NC(=O)[C@H](CC(C)C)NC(=O)[C@H](CC(C)C)NC(C)=O [LLnL, reference compound] (Ac-Leu-Leu-[Nle]-aldehyde) |  |  |  |  | inhibition of proteasomal activity (purified 20S proteasome [5]; 1 μM): 20%; inhibition of proteasomal activity (purified 20S proteasome [5]; 10 μM): 70%
O=C(N[C@H]1CCCC[C@@H]1NC(=O)c1cc(O)c(O)c(O)c1)c1cc(O)c(O)c(O)c1 [GTP-3] | 1500 nM | completely blocked LNCaP transformation capability | greatly increased levels of p27, IκB-α, and ubiquitinated proteins | greatly increased levels of p27, IκB-α, and ubiquitinated proteins | levels of Bax protein (LNCaP cells [4]): transiently increased levels of Bax protein
O=C(O[C@@H]1Cc2c(O)cc(O)cc2O[C@@H]1c1ccc(O)c(O)c1)c1cc(O)c(O)c(O)c1 [(−)-ECG] |  |  |  |  | IC50 ([3]; chymotrypsin-like activity, rabbit 20S proteasome): 710 nM
